US20110105472A1, “Diaminopyrimidines as crop protection agents” (Bayer CropScience AG, priority 2008, published 2011)

Assay: logP by LC-MS, method [b], acidic range pH 2.7
Type: physicochemical
Conditions: method [b], LC-MS, acidic range pH 2.7
In the case of CCS(=O)(=O)c1nc2ccc(Nc3ncc(Br)c(NC4CCC4)n3)cc2s1 [Compound 3], the log p is reported as 2.91[b].

Same assay, conditions: pH 2.7
With O=C1OCCN1c1ccc(Nc2ncc(Cl)c(NC3CCC3)n2)cc1 [compound 132] the log p was 1.59[b].
In the case of CCC(=O)Nc1cccc(Nc2ncc(Br)c(NC3CCC3)n2)c1 [Compound 97], the log p is reported as 1.71[b].
In the case of O=C(c1ccc(Nc2ncc(Br)c(NC3CCC3)n2)cc1)N1CCOCC1 [Compound 191], the log p is reported as 1.75[b].
For Cc1cccc(Nc2ncc(Cl)c(NC3CCC3)n2)c1 [Compound 231], the log p was 2.33[b].
With N#Cc1cccc(Nc2ncc(Br)c(NC3CCC3)n2)c1 [Compound 64] the log p was 2.67[b].
With CCN(CC)C(=O)c1cccc(Nc2ncc(Br)c(NC3CCC3)n2)c1 [Compound 252] the log p was 2.26[b].
For OC(c1cccc(Nc2ncc(Br)c(NC3CCC3)n2)c1)C(F)(F)F (stereo not drawn) [Compound 214], the log p was 2.17[b].
For CN(C)S(=O)(=O)Oc1cccc(Nc2ncc(Br)c(NC3CCC3)n2)c1 [Compound 89], the log p was 2.7[b].
With CC(C)c1cccc(Nc2ncc(Br)c(NC3CCC3)n2)c1 [Compound 205] the log p was 3.21[b].
For O=S(=O)(c1cccc(Nc2ncc(Br)c(NC3CCC3)n2)c1)N1CCOCC1 [Compound 147], the log p was 2.46[b].
With N#Cc1cccc(Nc2ncc(Cl)c(NC3CCC3)n2)c1 [compound 107] the log p was 2.46[b].
For O=C1COc2ccc(Nc3ncc(Br)c(NC4CCC4)n3)cc2N1 [Compound 6], the log p was 1.61[b].
With CNC(=O)Oc1cccc(Nc2ncc(Cl)c(NC3CCC3)n2)c1 [Compound 138] the log p was 1.64[b].
For Cc1cc(O)ccc1Nc1ncc(Br)c(NC2CCC2)n1 [compound 198], the log p was 1.47[b].
With O=C(NCC(F)(F)F)c1cccc(Nc2ncc(Br)c(NC3CCC3)n2)c1 [Compound 181] the log p was 2.21[b].
With CC(C)(C)C(=O)Nc1ccc(Nc2ncc(Cl)c(NC3CCC3)n2)cc1 [Compound 116] the log p was 1.94[b].
In the case of Oc1cccc(Nc2ncc(Br)c(NC3CCC3)n2)c1 [Compound 178], the log p is reported as 1.5[b].
For CNS(=O)(=O)Cc1ccc(Nc2ncc(Br)c(NC3CCC3)n2)cc1 [Compound 86], the log p was 1.71[b].
For O=C1CCc2cc(Nc3ncc(Br)c(NC4CCC4)n3)ccc21 [compound 9], the log p was 2.59[b].
In the case of CN(C)S(=O)(=O)c1cccc(Nc2ncc(Br)c(NC3CCC3)n2)c1 [Compound 157], the log p is reported as 2.53[b].
For COc1ccc(Nc2ncc(Br)c(NC3CCC3)n2)cc1 [Compound 208], the log p was 1.8[b].
In the case of COCC(C)Oc1ccc(Nc2ncc(Br)c(NC3CCC3)n2)cc1 (stereo not drawn) [Compound 41], the log p is reported as 2.11[b].
In the case of CC(=O)c1cc(Nc2ncc(Br)c(NC3CCC3)n2)ccc1Cl [Compound 150], the log p is reported as 2.95[b].
In the case of N#CCc1cc(Nc2ncc(Br)c(NC3CCC3)n2)ccc1F [Compound 219], the log p is reported as 2.2[b].
With O=C(NC1CC1)c1cccc(Nc2ncc(Br)c(NC3CCC3)n2)c1 [Compound 180] the log p was 1.78[b].
For CCSc1cccc(Nc2ncc(Br)c(NC3CCC3)n2)c1 [Compound 228], the log p was 3.37[b].
For O=S1(=O)CCCN1c1cccc(Nc2ncc(Cl)c(NC3CCC3)n2)c1 [Compound 257], the log p was 1.74[b].
In the case of CS(=O)(=O)c1ccc(Nc2ncc(Br)c(NC3CCC3)n2)cc1 [Compound 179], the log p is reported as 2.32[b].
For CCc1nc2cc(Nc3ncc(Br)c(NC4CCC4)n3)ccc2o1 [Compound 21], the log p was 2.06[b].
In the case of CCC(=O)c1cc(Nc2ncc(Br)c(NC3CCC3)n2)ccc1O [compound 194], the log p is reported as 2.39[b].
For CNC(=O)c1cccc(Nc2ncc(Cl)c(NC3CCC3)n2)c1 [compound 127], the log p was 1.5[b].
With Brc1cnc(Nc2ccccc2)nc1NC1CCC1 [Compound 229] the log p was 2.18[b].
For CNc1ccc(Nc2ncc(Br)c(NC3CCC3)n2)cc1 [compound 213], the log p was 1.18[b].
In the case of CS(=O)(=O)c1ccc(Nc2ncc(Cl)c(NC3CCC3)n2)cc1 [compound 113], the log p is reported as 2.09[b].
In the case of C=CC(=O)Nc1cccc(Nc2ncc(Br)c(NC3CCC3)n2)c1 [Compound 82], the log p is reported as 1.71[b].
With Cc1ccc(NS(=O)(=O)c2cc(Nc3ncc(Br)c(NC4CCC4)n3)ccc2C)cc1 [Compound 66] the log p was 3.07[b].
With O=C(Nc1cccc(Nc2ncc(Br)c(NC3CCC3)n2)c1)c1ccco1 [Compound 167] the log p was 1.94[b].
In the case of C=CCNC(=O)c1ccc(Nc2ncc(C(F)(F)F)c(NC3CCC3)n2)cc1 [Compound 239], the log p is reported as 2.79[b].
In the case of CC(=O)Nc1ccc(Nc2ncc(Br)c(NC3CCC3)n2)cc1Cl [Compound 186], the log p is reported as 1.97[b].
In the case of CC(=O)N1CCc2ccc(Nc3ncc(Br)c(NC4CCC4)n3)cc21 [Compound 12], the log p is reported as 1.78[b].
In the case of CC(=O)N(c1ccc(Nc2ncc(Br)c(NC3CCC3)n2)cc1)C1CC1 [Compound 209], the log p is reported as 1.9[b].
For O=S1(=O)CCCN1c1cccc(Nc2ncc(Br)c(NC3CCC3)n2)c1 [Compound 258], the log p was 2.25[b].
For CNC(=O)c1cccc(Nc2ncc(Br)c(NC3CCC3)n2)c1 [Compound 192], the log p was 1.58[b].
For COc1ccc(Nc2ncc(Br)c(NC3CCC3)n2)cc1OC [Compound 65], the log p was 1.71[b].
For CC(C)C(=O)Nc1ccc(Nc2ncc(Br)c(NC3CCC3)n2)cc1 [compound 169], the log p was 1.83[b].
In the case of COC(=O)Nc1ccc(Nc2ncc(Br)c(NC3CCC3)n2)cc1 [Compound 46], the log p is reported as 1.62[b].
For Fc1cc(F)cc(Nc2ncc(Br)c(NC3CCC3)n2)c1 [compound 144], the log p was 3.98[b].
With CCOC(=O)c1cccc(Nc2ncc(Br)c(NC3CCC3)n2)c1 [Compound 77] the log p was 2.77[b].
For CCc1cccc(Nc2ncc(Cl)c(NC3CCC3)n2)c1 [Compound 251], the log p was 2.67[b].
In the case of CC(C)(C)c1cccc(Nc2ncc(C(F)(F)F)c(NC3CCC3)n2)c1 [Compound 259], the log p is reported as 4.98[b].
In the case of CN1C(=O)COc2ccc(Nc3ncc(Br)c(NC4CCC4)n3)cc21 [compound 14], the log p is reported as 1.85[b].
For CC(C)(C)NC(=O)Cc1cccc(Nc2ncc(Br)c(NC3CCC3)n2)c1 [Compound 143], the log p was 2.19[b].
For CN(C)C(=O)c1ccc(Nc2ncc(Cl)c(NC3CCC3)n2)cc1 [Compound 240], the log p was 1.6[b].
For CC(=O)Cc1ccc(Nc2ncc(Cl)c(NC3CCC3)n2)cc1 [Compound 244], the log p was 1.75[b].
For O=C1N(CCCl)CCN1c1cccc(Nc2ncc(Br)c(NC3CCC3)n2)c1 [Compound 206], the log p was 2.19[b].
In the case of FC(F)(F)Oc1cccc(Nc2ncc(Br)c(NC3CCC3)n2)c1 [compound 182], the log p is reported as 4.15[b].
For O=C1CCCc2ccc(Nc3ncc(Br)c(NC4CCC4)n3)cc2N1 [Compound 15], the log p was 1.75[b].
In the case of Clc1cnc(Nc2ccc(I)cc2)nc1NC1CCC1 [compound 230], the log p is reported as 3.49[b].
In the case of CCc1cc(Nc2ncc(Cl)c(NC3CCC3)n2)ccc1C [Compound 222], the log p is reported as 2.73[b].
With CC1(Nc2nc(Nc3ccccc3)ncc2C(F)(F)F)CCC1 [compound 232] the log p was 3.36[b].
For CCC(=O)c1ccc(Nc2ncc(Br)c(NC3CCC3)n2)cc1 [Compound 172], the log p was 3.19[b].
With COC(=O)c1ccc(Nc2ncc(Br)c(NC3CCC3)n2)cc1Cl [Compound 78] the log p was 3.59[b].
For O=C1CCC(=O)N1c1ccc(Nc2ncc(Br)c(NC3CCC3)n2)cc1 [compound 34], the log p was 1.62[b].
For Brc1cnc(Nc2ccc3c(c2)OCO3)nc1NC1CCC1 [Compound 19], the log p was 1.87[b].
For N#Cc1ccc(Nc2ncc(Br)c(NC3CCC3)n2)cc1 [Compound 70], the log p was 2.95[b].
For CN(C)S(=O)(=O)Oc1ccc(Nc2ncc(Br)c(NC3CCC3)n2)cc1 [Compound 160], the log p was 2.46[b].
With Cc1cc(Nc2ncc(Br)c(NC3CCC3)n2)ccc1O [Compound 201] the log p was 1.59[b].
For CCOC(=O)Nc1ccc(Nc2ncc(Cl)c(NC3CCC3)n2)cc1 [compound 136], the log p was 1.8[b].
With CN(C)S(=O)(=O)c1ccc(Nc2ncc(Br)c(NC3CCC3)n2)cc1 [Compound 91] the log p was 2.73[b].
In the case of O=C1CCCN1c1ccc(Nc2ncc(Cl)c(NC3CCC3)n2)cc1 [compound 133], the log p is reported as 1.66[b].
In the case of CC(C)(C)C(=O)Nc1cccc(Nc2ncc(Cl)c(NC3CCC3)n2)c1 [Compound 125], the log p is reported as 2.04[b].
With C=CCNC(=O)c1ccc(Nc2ncc(Cl)c(NC3CCC3)n2)cc1 [Compound 241] the log p was 1.91[b].
In the case of COc1ccc(Nc2ncc(Cl)c(NC3CCC3)n2)cc1 [Compound 110], the log p is reported as 1.75[b].
For FC(F)(F)Oc1cccc(Nc2ncc(Cl)c(NC3CCC3)n2)c1 [compound 112], the log p was 3.59[b].
With CN1CC(=O)N(c2ccc(Nc3ncc(Br)c(NC4CCC4)n3)cc2)C1=O [Compound 164] the log p was 1.63[b].
In the case of COc1ccccc1Nc1ncc(Br)c(NC2CCC2)n1 [Compound 68], the log p is reported as 2.23[b].
With CC(C)(C)C(=O)Cc1ccc(Nc2ncc(Br)c(NC3CCC3)n2)cc1 [Compound 104] the log p was 2.63[b].
For CCSc1cccc(Nc2ncc(Cl)c(NC3CCC3)n2)c1 [Compound 188], the log p was 3.15[b].
In the case of Brc1cnc(Nc2ccc3cc[nH]c3c2)nc1NC1CCC1 [Compound 2], the log p is reported as 1.7[b].
With O=c1[nH]c2cc(Nc3ncc(Br)c(NC4CCC4)n3)ccc2o1 [Compound 16] the log p was 1.61[b].
With Clc1ccc(Nc2ncc(Br)c(NC3CCC3)n2)cc1 [compound 69] the log p was 2.99[b].
In the case of CC(C)Sc1cccc(Nc2ncc(Cl)c(NC3CCC3)n2)c1 [Compound 146], the log p is reported as 3.62[b].
With CC(=O)CCc1cccc(Nc2ncc(Br)c(NC3CCC3)n2)c1 [Compound 253] the log p was 2.04[b].
In the case of CNC(=O)c1ccc(Nc2ncc(Br)c(NC3CCC3)n2)cc1 [Compound 101], the log p is reported as 1.54[b].
In the case of O=S(=O)(c1cccc(Nc2ncc(Cl)c(NC3CCC3)n2)c1)N1CCCCC1 [compound 130], the log p is reported as 2.3[b].
With O=C(c1ccc(Nc2ncc(Cl)c(NC3CCC3)n2)cc1)N1CCOCC1 [Compound 249] the log p was 1.24[b].
In the case of O=C(Nc1ccccc1)c1ccc(Nc2ncc(Br)c(NC3CCC3)n2)cc1 [Compound 72], the log p is reported as 2.09[b].
With CN(C=O)c1ccc(Nc2ncc(Br)c(NC3CCC3)n2)cc1 [Compound 153] the log p was 1.68[b].
In the case of CNc1cccc(Nc2ncc(Cl)c(NC3CCC3)n2)c1 [Compound 260], the log p is reported as 1.49[b].
